Data on one substance can be found in patent publication EP0627444B1, “Monoacetic derivatives of the peptides leu-phe-ala and ala-leu-phe and their use in identifying and destroying tumour cells, viruses and virus-carrying cells” (priority 1993, dated 1998).

“And” between values parts separate entries of the source, which are not always exact repeats. Identical values can stand only once.

One assay has as its system NK lymphocytes. Kind of assay: Activation test for NK lymphocytes assessed by means of rosette formation. It counts as in vivo, female mice belonging to BALB/C strain. The note with it: Lot B controls, muramyl dipeptide only. How it is done:
In carrying out such a test, all six isomers of the monoacetic derivative of the peptide were used, individually, both in normoergic (germ free) animals (lot A) and in animals previously immunized with muramyl dipeptide (lot B). The method and results of the test are hereinafter reported.
A number of groups, each consisting of 18 randomized animals, were inoculated with 0.1 ml/each of normal saline solution (controls) or 0.1 ml/each of monoacetic peptide in its 6 possible isomers dissolved in normal saline solution. The 17.5 mg/kg dose administered to the animals corresponds to 1/20 of the LD found with respect to these peptides.
Treated and control animals were sacrificed in groups of 6 on the 11th, 13th and 18th day after the inoculation of the normal saline solution or of the peptide. […]
Cell survival was assessed by means of the supravital staining technique with trypan blue. […]
FCS, at a 10% ratio, was added to the above mentioned suspension. Following 5 minutes of incubation at +37 °C and 5 minutes of centrifugation at 200 rpm, the samples were incubated at +4 °C for 18 hours prior to reading the results.
The lymphocytes encircled by 3 or more ram's erythrocytes were considered as rosette-forming lymphocytes. The significance was assessed by means of Student's "T" test. […]

The next assay concerns Lewis Lung Carcinoma. In words: Lewis Lung Carcinoma, third set of experiments (with MDP). It counts as in vivo, female mice C57BI/6. The protocol:
The tested compound was Ala-Leu-Phe = P1 (SF080) (17.5 mg/kg) in the model of tumour disease caused by Lewis Lung Carcinoma. The compound was also evaluated in combination with muramyl dipeptide (MDP).
Animals: female mice C57BI/6 (Charles River) the average weight of which was 20g were used. The experiment involved overall 48 mice.
The tumour cells of LLC were obtained from the fourth passage of tumour cells. The total number of cells was 2 x 10^5 in 0.1 ml of Hanks solution. The cells were injected subcutaneously into axillary region.
The peptide P1 was administered i.p. in suspension with propylenglycol (0.1 ml/50 ml) in physiological solution. […] The same way of administration as in tested animals (i.p.) was used.
The animals were divided into 4 groups each having 12 mice. In groups 2 and 3 MDP was administered subcutaneously in a dose of 100 µg (0.5 ml physiol. solution per mouse). The protocol of the test is as follows.
The animals in all groups were observed daily for tumour growth. In the control group the tumour growth was so rapid and the animals were in such a condition that the experiment was terminated after 18 days from the administration of tumour cells. Mice were sacrificed and tumour mass was excised and weighed. Both lobes of lungs were inspected for the presence of metastases.
The following parameters have been evaluated in this experiment: • a) the percentage of animals not having the tumour • b) the average weight of the tumour • c) the percentage of animals with metastases in lungs • d) the average number of metastases in case of positive animals
Statistical analysis was performed by the method of one factorial analysis of variance (ANOVA), Dunnett's test and chi-square test. […]

[1] abbreviates: group 2: MDP 100 µg s.c. day -3, day 18.

Turning to muramyl dipeptide [MDP], the “rosette formation after preventive immunization” value in the assay with NK lymphocytes is recorded as “significant decrement”. In addition, in the assay with Lewis Lung Carcinoma (setting [1]), the “Weight of tumours, AVG” value is on record as 3.24 g; the “Weight of tumours, SUM” value was 29.16 g; the “average number of metastases, AVG” value is recorded as 1; the metastase free animals is on record as 64%. In the assay with Lewis Lung Carcinoma (setting [1]), the “number of metastases, SUM” value was 9 and the tumour-free animals came to 18%. For the same substance, the “number of metastases (meta)” value with Lewis Lung Carcinoma (individual animals, lungs, group 2: MDP 100 µg s.c. day -3, day 18) is 1 and 3 (2×) and 0 (7×) and 2. In addition, the Weight of tumours with Lewis Lung Carcinoma (individual animals, group 2: MDP 100 µg subcutaneously day -3, 18 days after tumour cells) was 4.88 g and 4.48 g and 1.97 g and 3.13 g and 0 g (2×) and 3.57 g and 2.72 g and 1.81 g and 4.11 g and 2.49 g.
